Experiment [1] relates to MUC1 transcription. Briefly: Trypsin-induced MUC1 transcription compared with NE. Type of experiment: cell-based.
The test system of experiment [2] is MUC1 promoter. Briefly: MUC1 promoter-luciferase reporter assay in A549 cells. The following applies: MUC1-pGL2b-transfected A549 cells, 100 nM NE, 24 hr. For orientation: A reporter such as luciferase makes a cellular process visible.
Experiment [3] relates to MUC1 protein in A549 cells.
Experimental: Confluent A549 cells were incubated in the presence or absence of 5.0 μg/ml of actinomycin (AcD) or 10 μg/ml of cycloheximide (Chx) for 1 hr and either non-treated or treated for 24 hr with 100 nM of NE. MUC1 protein levels in cell lysates (A) and spent media (B) were measured by ELISA. Each bar represents the mean±SEM (n=3). […] (C) Aliquots of spent media obtained from confluent A549 cells were non-treated (0 hr) or treated for 24 hr with 100 nM NE or vehicle control and MUC1 levels in the spent media determined by ELISA. Each bar represents the mean±SEM (n=3).
A549 cells were seeded at 5.0×10^4 cells/well in 24-well plates in Dulbecco's Modified Eagle Medium (DMEM) containing 10% fetal bovine serum (FBS), 100 U/ml penicillin, and 100 μg/ml streptomycin (all from Invitrogen, Carlsbad, Calif.) and incubated at 37° C. in a humidified CO2 incubator. Confluent monolayers were washed with serum-free DMEM and treated with 100 nM (2.6 U/ml) NE or vehicle control (PBS) for 24 hr. In some experiments, the cells were pretreated for 1 hr with 5.0 μg/ml of actinomycin D or 10 μg/ml of cycloheximide prior to NE treatment. Following treatment, cell-conditioned media were collected, and the cells were washed with PBS and lysed with 500 μl/well of PBS containing 1.0% Triton X-100, 1.0% sodium deoxycholate, 1.0% protease inhibitor cocktail, and 2.0 mM phenylmethylsulfonyl fluoride (PMSF). Lysates and conditioned media were incubated for 20 min at 80° C. to inactivate residual NE, insoluble material removed by centrifugation at 14,000×g for 10 min at 4° C., and protein concentrations measured by the procedure of Bradford using bovine serum albumin as standard.
ELISA. A549 cell lysates or cell-conditioned culture media were centrifuged at 10,000×g for 10 min at 4° C., added in triplicate to 96-well ELISA plates (MaxiSorb™, Nalge Nunc, Rochester, N.Y.), and incubated overnight at 4° C. Wells were blocked for 1 hr at room temperature (about 22° C.) with PBS, pH 7.0, containing 10 mg/ml BSA and 50 mg/ml sucrose and washed with PBS containing 0.05% Tween 20 (PBS-T). The samples were reacted for 2 hr at room temperature with 200 μg/ml of primary MUC1 antibody (GP1.4), washed with PBS-T, reacted for 2 hr at room temperature with 200 μg/ml of secondary antibody (peroxidase-conjugated goat antimouse IgG) (KPL, Gaithersburg, Md.), and washed with PBS-T. Bound antibodies were detected with tetramethylbenzidine substrate (SureBlue™, KPL), the substrate reaction stopped with 1 N HCl, and absorbencies at 450 nm measured using a microplate spectrophotometer (Dexall, Gaithersburg, Md.).
Experiment [4] concerns MUC1. Description: Degradation of MUC1 in spent medium aliquots by NE (ELISA). The following applies: spent medium of A549 cells, 100 nM NE, 24 hr. It counts as biochemical, human. How it is done: To verify the ability of NE to degrade MUC1, aliquots of a spent medium sample containing MUC1 molecules were incubated for 24 hr in the presence of NE and the amounts of MUC1 measured by ELISA.
In general terms: In an ELISA, binding on a coated surface is turned into a signal by an enzyme label.

Experiment [5] deals with Sp1 binding to the −99/−90 segment of the MUC1 promoter. Description: EMSA of Sp1 binding to the MUC1 promoter segment. Set-up: species or system human. The note with it: A549 nuclear extracts, 100 nM NE 0-120 min. As for the experimental part: Referring now to FIG. 16, NE enhances the binding of Sp1 to the −99/−90 segment in the MUC1 promoter. Confluent A549 cells were treated with vehicle control (A) or 100 nM NE (B) for 0, 10, 20, 30, 60, or 120 min. Cells were lysed and nuclear extracts were incubated with or without 100-fold molar excess of unlabeled probe, poly(dIdC) as a non-specific competitor, or Sp1 antibody for 30 min on ice, and then incubated with a [γ-^32P]-labeled oligonucleotide corresponding to the human MUC1 promoter between nucleotides −104 and −83. DNA-protein complexes were resolved on 4.5% polyacrylamide gels and analyzed by autoradiography.
Electrophoretic mobility shift assay (EMSA). Confluent A549 cells were treated with 100 nM NE for 0, 10, 20, 30, 60, or 120 min. Following treatment, nuclear extracts were prepared as previously described (31). […]
Protein concentrations were measured by the procedure of Bradford (8). […] The DNA-protein complexes were resolved on 4.5% polyacrylamide gels and analyzed by autoradiography as described in Lee et al. 2004, Differential expression of mu-opioid receptor gene in CXBK and B6 mice by Sp1, Mol Pharmacol 66: 1580-1584.
(In general: In EMSA bound probe runs differently from free probe, usually more slowly.)

The test system of experiment [6] is MUC1 mRNA. Description: Effect of NE on MUC1 mRNA expression and stability in A549 cells (real time RT-PCR). It counts as cell-based, human. How it is done: Referring now to FIG. 11. […] MUC1 mRNA levels were measured by real time RT-PCR and normalized to GAPDH mRNA levels. Each data point represents the mean±SEM (n=3).
Effect of NE on MUC1 mRNA expression. A549 cells were seeded in DMEM plus 10% FBS in 24-well plates at 5.0×10^4 cells/well, cultured to confluence for 24 hr at 37° C., and treated for 24 hr with various concentrations of NE (0, 10, 25, 50, 100, or 150 nM) or vehicle control. […] At the end of each chase period, the cells were washed with PBS and MUC1 transcripts quantified by real time RT-PCR.
Real time RT-PCR. Total RNA was isolated using RNeasy (Qiagen, Valencia, Calif.) and 2.0 μg was reverse transcribed using the iScript cDNA Synthesis kit (BioRad, Hercules, Calif.) in a total volume of 20 μl. Real time PCR was carried out using the Taqman probes and iQ™ Supermix (BioRad) according to the manufacturer's instructions. Briefly, 2.0 μl of cDNA or control plasmid was used as template for amplification in the iCycler (BioRad) with 200 nM of MUC1 or GAPDH (internal control) primers and probes. […] The CT value was defined as the number of PCR cycles required for the specific fluorescence signal to exceed the detection threshold value set by the software installed in the iCycler. […] The levels of MUC1 and GAPDH mRNAs were calculated from the standard curves and the expression of MUC1 transcripts was normalized to GAPDH transcripts.

On to Trypsin, for which the “activity in inducing MUC1 transcription relative to that of NE” value in experiment [1] was “less than 10%”.

In the case of neutrophil elastase, the “MUC1 promoter luciferase activity compared with vehicle control” value in experiment [2] is “significantly higher luciferase activity”. Moreover, the “MUC1 in spent media compared with the control group” value in experiment [3] (A549 cells, 100 nM NE 24 hr, with or without AcD or Chx pretreatment) is 45%. The “increase of MUC1 levels in cell lysates compared with 24 hr control” value in experiment [3] (confluent A549 cells, 100 nM NE, 24 hr) was 33%. In addition, the “MUC1 remaining in spent medium aliquots after incubation with NE” value in experiment [4] is on record as “no detectable amounts of MUC1”. Moreover, the “time of maximum Sp1 binding to the MUC1 promoter segment in the presence of NE” value in experiment [5] is 60 min. In addition, the “effect on MUC1 mRNA stability” value in experiment [6] (100 nM NE 24 hr, chase with 5.0 μg/ml actinomycin D 0-24 hr) is reported as “does not alter MUC1 mRNA stability”. For the same substance, in experiment [6] (NE 0-150 nM, real time RT-PCR), the “MUC1 mRNA levels with increasing doses and time” value is reported as “progressively higher MUC1 mRNA levels”.
